Source: article PMC9942120 (iScience, 2023)

Key:
Type in all cases: cell-based
S100A16 = target: T1, S100A16 (Homo sapiens, UniProt Q96FQ6); assay: direct LC-MS/MS profiling of modified tryptic peptides; settings: covalent at Cys4; H358 cells, […] AMG510, […] h (methods print […] h)
T1 sequence (Q96FQ6 1-103): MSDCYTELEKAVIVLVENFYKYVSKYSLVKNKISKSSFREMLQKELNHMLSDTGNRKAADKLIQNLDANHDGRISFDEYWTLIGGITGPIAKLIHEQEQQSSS

SPTLC2 = target: T2, SPTLC2 (Homo sapiens, UniProt O15270); assay: as above; settings: covalent at Cys99; H358 cells, […] AMG510, […] h (methods print […] h)
T2 sequence (O15270 1-562): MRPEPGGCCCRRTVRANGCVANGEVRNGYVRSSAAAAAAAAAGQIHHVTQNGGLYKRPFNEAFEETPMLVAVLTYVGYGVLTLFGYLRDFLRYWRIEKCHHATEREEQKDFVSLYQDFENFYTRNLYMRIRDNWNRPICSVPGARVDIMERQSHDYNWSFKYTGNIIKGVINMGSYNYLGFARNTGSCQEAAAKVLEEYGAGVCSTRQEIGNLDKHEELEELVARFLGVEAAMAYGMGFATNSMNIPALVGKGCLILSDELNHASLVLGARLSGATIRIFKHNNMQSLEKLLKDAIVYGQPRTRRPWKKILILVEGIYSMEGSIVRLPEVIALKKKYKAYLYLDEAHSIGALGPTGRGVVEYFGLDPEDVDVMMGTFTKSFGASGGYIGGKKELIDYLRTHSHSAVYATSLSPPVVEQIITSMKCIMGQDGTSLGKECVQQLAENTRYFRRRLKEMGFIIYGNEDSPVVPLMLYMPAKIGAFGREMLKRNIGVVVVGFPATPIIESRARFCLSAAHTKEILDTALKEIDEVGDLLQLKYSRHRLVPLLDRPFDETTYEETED

KRT4 = KRT4 (Homo sapiens, UniProt P19013); assay: as above; settings: covalent at Cys42; H358 cells, […] AMG510, […] h (methods print […] h)
PCBP1 = PCBP1 (Homo sapiens, UniProt Q15365); assay: as above; settings: covalent at Cys194; H358 cells, […] AMG510, […] h (methods print […] h)
RAE1 = target: T3, RAE1 (Homo sapiens, UniProt P78406); assay: as above; settings: covalent at Cys106; H358 cells, […] AMG510, […] h (methods print […] h)
T3 sequence (P78406 1-368): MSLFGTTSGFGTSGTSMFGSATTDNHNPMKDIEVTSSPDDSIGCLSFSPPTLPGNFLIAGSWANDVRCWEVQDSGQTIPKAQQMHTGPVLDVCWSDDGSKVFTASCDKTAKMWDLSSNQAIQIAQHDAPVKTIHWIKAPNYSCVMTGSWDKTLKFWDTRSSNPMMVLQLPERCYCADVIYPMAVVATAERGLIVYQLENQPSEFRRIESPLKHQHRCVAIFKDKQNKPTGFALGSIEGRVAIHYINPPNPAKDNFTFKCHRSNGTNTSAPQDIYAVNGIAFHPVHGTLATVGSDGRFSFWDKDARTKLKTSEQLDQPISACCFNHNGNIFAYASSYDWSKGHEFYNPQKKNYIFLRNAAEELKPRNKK

ALDOA [1] = target: T4, ALDOA (Homo sapiens, UniProt P04075); assay: LC-MS/MS site mapping; settings: covalent at Cys339; H358 cells treated with AMG510
T4 sequence (P04075 2-364): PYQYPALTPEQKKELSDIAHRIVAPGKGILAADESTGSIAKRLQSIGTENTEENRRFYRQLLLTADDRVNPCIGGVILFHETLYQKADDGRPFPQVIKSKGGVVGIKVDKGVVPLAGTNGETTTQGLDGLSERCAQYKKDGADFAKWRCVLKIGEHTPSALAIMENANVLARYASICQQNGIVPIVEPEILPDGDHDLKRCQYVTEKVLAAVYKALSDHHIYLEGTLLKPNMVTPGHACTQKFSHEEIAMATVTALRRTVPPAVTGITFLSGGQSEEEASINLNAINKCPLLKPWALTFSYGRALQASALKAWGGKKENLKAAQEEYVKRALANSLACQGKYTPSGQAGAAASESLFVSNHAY

TK1 = target: T5, TK1 (Homo sapiens, UniProt P04183); assay: direct LC-MS/MS profiling of modified tryptic peptides; settings: covalent at Cys3; H358 cells, […] AMG510, […] h (methods print […] h)
T5 sequence (P04183 2-234): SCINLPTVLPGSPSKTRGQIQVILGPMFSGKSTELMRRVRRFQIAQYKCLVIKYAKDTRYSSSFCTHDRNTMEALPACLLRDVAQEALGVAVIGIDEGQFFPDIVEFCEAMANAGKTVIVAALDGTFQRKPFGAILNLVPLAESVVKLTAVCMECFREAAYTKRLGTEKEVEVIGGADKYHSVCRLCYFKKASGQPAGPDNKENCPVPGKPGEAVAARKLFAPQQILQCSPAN

ALDOA [2] = target: T4, ALDOA; assay: colorimetric aldolase activity kit; settings: covalent; […] AMG510 or vehicle, […] min

Sequence of KRT4 (P19013 whole entry): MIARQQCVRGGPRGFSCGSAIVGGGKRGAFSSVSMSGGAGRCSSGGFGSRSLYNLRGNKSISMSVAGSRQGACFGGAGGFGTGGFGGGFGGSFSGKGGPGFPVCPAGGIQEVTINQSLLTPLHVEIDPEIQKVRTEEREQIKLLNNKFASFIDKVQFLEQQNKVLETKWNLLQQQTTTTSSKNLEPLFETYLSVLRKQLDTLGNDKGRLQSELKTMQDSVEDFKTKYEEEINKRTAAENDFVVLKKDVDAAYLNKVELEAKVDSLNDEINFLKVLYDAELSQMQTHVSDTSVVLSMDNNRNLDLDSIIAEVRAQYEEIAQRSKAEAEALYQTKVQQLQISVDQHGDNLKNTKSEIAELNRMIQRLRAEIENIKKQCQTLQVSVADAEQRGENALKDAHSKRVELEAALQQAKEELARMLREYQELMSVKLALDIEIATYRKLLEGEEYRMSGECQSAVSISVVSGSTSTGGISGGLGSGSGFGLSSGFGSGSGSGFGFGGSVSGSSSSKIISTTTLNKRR
Sequence of PCBP1 (Q15365 whole entry): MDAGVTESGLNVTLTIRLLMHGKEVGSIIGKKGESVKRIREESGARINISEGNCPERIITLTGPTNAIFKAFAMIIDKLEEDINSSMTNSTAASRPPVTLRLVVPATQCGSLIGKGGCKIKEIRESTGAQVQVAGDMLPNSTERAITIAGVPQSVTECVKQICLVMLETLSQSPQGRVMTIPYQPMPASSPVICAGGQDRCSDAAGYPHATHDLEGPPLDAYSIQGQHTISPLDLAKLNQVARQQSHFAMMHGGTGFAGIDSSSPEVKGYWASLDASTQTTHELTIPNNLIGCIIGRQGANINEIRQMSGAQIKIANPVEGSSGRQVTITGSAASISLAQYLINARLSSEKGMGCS

C=CC(=O)N1CCN(c2nc(=O)n(-c3c(C)ccnc3C(C)C)c3nc(-c4c(O)cccc4F)c(F)cc23)[C@@H](C)C1 [AMG510]
direct LC-MS/MS profiling of modified tryptic peptides (S100A16): transporters (RAE1 C106, S100A16C4, VDAC2 C91 and C225)
direct LC-MS/MS profiling of modified tryptic peptides (SPTLC2): They included enzymes (PLOD3 C691, RPE C5, SPTLC2 C99, UBE2O C370, and TK1 C3)
direct LC-MS/MS profiling of modified tryptic peptides (KRT4): differentiating epithelia cell markers (KRT4 C42)
direct LC-MS/MS profiling of modified tryptic peptides (PCBP1): tumor suppressor (PCBP1 C194)
direct LC-MS/MS profiling of modified tryptic peptides (RAE1): transporters (RAE1 C106, S100A16C4, VDAC2 C91 and C225)
LC-MS/MS site mapping (ALDOA [1]): We first confirmed that Cys339 was also endogenously modified by AMG510 in H358 cells
direct LC-MS/MS profiling of modified tryptic peptides (TK1): They included enzymes (PLOD3 C691, RPE C5, SPTLC2 C99, UBE2O C370, and TK1 C3)
aldolase activity (ALDOA [2]): The ALDOA enzyme activity assay showed that the activity was indeed inhibited by the AMG510
